Read-outs that look alike come from different tables or passages of the source. Residues, ends and D or L forms follow the SMILES beside them. *: point of attachment. Cbz = O=C(OCc1ccccc1)*
Legend:
[1] = test system: eight TNBC cell lines (BT-549, CAL-148, HCC1806, HCC38, HCC70, MDA-MB-436, MDA-MB-453, MDA-MB-468); assay: Monotherapy drug screen, mean across the TNBC cell lines; conditions: 24 h
Experimental: Eighteen pharmaceutical compounds were purchased from Selleckchem (Supplementary Table 2). Stock solutions were prepared using dimethyl sulfoxide (DMSO; Merck), physiological saline (sodium chloride 0.9%) or Milli-Q water, and stored at −80 °C. […] Matched concentration solvent vehicle controls were used for each drug concentration. The drug screens were performed in triplicate and repeated three (monotherapy) or two (combination therapy) times (Fig. 7).
The optimal seeding density per 96-well was determined for each cell line as previously described. The cells were seeded at a density of 4.0 × 10^3 to 7.5 × 10^3 (cell type dependent) in 96-well clear, flat-bottom microplates (Corning Life Sciences, Sigma-Aldrich) in 100 µl complete culture medium (Supplementary Table 1) and cultured for 24 h. Cell viability was determined using the resazurin assay in untreated cells at the time of plating (t = 0) and treated cells after 24 h drug treatment (Fig. 7). Percentage cell viability was calculated as 100% × (absorbance of treated cells – absorbance of background controls) / (absorbance of matched solvent vehicle controls – absorbance of background controls). The area under the curve (AUC), half-maximal inhibitory concentration (IC50), drug potency (GR50), and drug efficacy (GRmax) were determined for each compound using the GRmetrics (version 1.20.0) package in R. The monotherapy data were evaluated with the IDACombo (version 1.0.2) package in R to predict potential drug combinations (Table 1). SynergyFinder (version 3.2.10) package in R was used to identify synergistic drug combinations.
Eighteen pharmaceutical compounds were purchased from Selleckchem. […] The solubility of the compound was enhanced by pre-heating the solvent (lukewarm), if necessary. […] The stock solutions were stored at -80°C. […] Matched concentration solvent vehicle controls were used for each drug concentration. The drug screens were performed in triplicate and repeated three times for the monotherapies and twice for the combination treatments. The drug(s) and corresponding controls were plated in 96-well PCR plates (VWR) and stored at -20°C (Fig. 6). The drug plates were thawed, centrifuged (3000 rpm for 30s), and acclimatized to RT before the drugs were added to the cells. New drug plates were prepared for each drug screen.
The cells were seeded at a density of 4.0x10^3 to 7.5x10^3 (cell type-dependent) in 96-well clear, flat-bottom microplates (Corning Life Sciences, Sigma-Aldrich) in 100 µl culture medium supplemented with 10% FBS and cultured for 24h. Cell viability was determined using the resazurin assay after 24h drug treatment (Fig. 6). Percentage cell viability was calculated as 100% × (absorbance of treated cells – absorbance of background controls) / (absorbance of matched solvent vehicle controls – absorbance of background controls). Normalized growth rate inhibition (GR) was assessed using the absorbance of untreated cells after the time of plating (t = 0). […] For combination treatment, the monotherapy data were evaluated with the IDACombo (version 1.0.2)[20] package in R to predict potential drug combinations (Table 1). SynergyFinder (version 3.2.10)[21] package in R was used to identify synergistic drug combinations.

HCC70 cells = assay: Resazurin-based cell viability assay, monotherapy drug screen; set-up: species or system human; AUC: scale not given here; conditions: for AUC: area under the dose response curve, 24 h; for GRmax: drug efficacy at highest tested dose (<0 cytotoxic, 0 cytostatic, >0 partial growth inhibition); for IC50: Homo sapiens
Experimental: (§1) Eighteen pharmaceutical compounds were purchased from Selleckchem. […] The stock solutions were stored at -80°C. […] New drug plates were prepared for each drug screen.
(§2) To determine the optimal seeding density and ensure that the cells were in the exponential phase during the duration of the experiment (approx. 52h), each cell line (BT-549, CAL-148, HCC1806, HCC38, HCC70, MCF-10A, MCF-7, MDA-MB-436, MDA-MB-453, and MDA-MB-468) was seeded at different concentrations (1000 to 16000 cells) per 96-well, as previously described. Cell viability was measured daily (day 0 [plating day] to day 4) using 0.2 mg/ml resazurin solution prepared from resazurin sodium salt (Fisher Scientific) dissolved in sterile 1xPBS (ThermoFisher Scientific). Before use, the resazurin solution was brought to RT before 10 µl (10% of cell medium volume) was added to each 96-well and incubated for 4h at 37°C. The absorbance was measured with a 560 nm excitation filter and a 615 nm emission filter in a Wallac 1420 VICTOR2™ microplate reader (Perkin Elmer). The slope of the curve was used to determine the optimal seeding density, i.e., the highest seeding density with linear growth between days 1 and 3.

MDA-MB-468 cells = assay: as above; set-up: species or system human; AUC: scale not given here; conditions: for IC50: Homo sapiens; for AUC: area under the dose response curve, 24 h
Experimental: as §1, §2

MCF-7 cells = assay: as above; set-up: species or system human; AUC: scale not given here; conditions: for IC50: Homo sapiens; for AUC: area under the dose response curve, 24 h; for GRmax: drug efficacy at highest tested dose (<0 cytotoxic, 0 cytostatic, >0 partial growth inhibition)
Experimental: as §1, §2

MDA-MB-453 cells = assay: as above; set-up: species or system human; AUC: scale not given here; conditions: for IC50: Homo sapiens; for AUC: area under the dose response curve, 24 h
Experimental: as §1, §2

HCC38 cells = assay: as above; set-up: species or system human; AUC: scale not given here; conditions: for AUC: area under the dose response curve, 24 h; for GRmax: drug efficacy at highest tested dose (<0 cytotoxic, 0 cytostatic, >0 partial growth inhibition); for IC50: Homo sapiens
Experimental: as §1, §2

HCC1806 cells = assay: as above; set-up: species or system human; AUC: scale not given here; conditions: for AUC: area under the dose response curve, 24 h; for GRmax: drug efficacy at highest tested dose (<0 cytotoxic, 0 cytostatic, >0 partial growth inhibition); for IC50: Homo sapiens
Experimental: as §1, §2

MDA-MB-436 cells = assay: as above; set-up: species or system human; AUC: scale not given here; conditions: for IC50: Homo sapiens; for AUC: area under the dose response curve, 24 h; for GRmax: drug efficacy at highest tested dose (<0 cytotoxic, 0 cytostatic, >0 partial growth inhibition)
Experimental: as §1, §2

BT-549 cells = assay: as above; set-up: species or system human; AUC: scale not given here; conditions: for AUC: area under the dose response curve, 24 h; for GRmax: drug efficacy at highest tested dose (<0 cytotoxic, 0 cytostatic, >0 partial growth inhibition); for IC50: Homo sapiens
Experimental: as §1, §2

MCF-10A cells = assay: as above; set-up: species or system human; AUC: scale not given here; conditions: for IC50: Homo sapiens; for AUC: area under the dose response curve
Experimental: as §1, §2

[2] = HCC70, 24 h drug treatment, read-out: IC50
[3] = HCC70, growth rate inhibition concentration at GR(c) = 0.5, 24 h, read-out: GR50 (the source's name)
[4] = MDA-MB-468, 24 h drug treatment, read-out: IC50
[5] = MDA-MB-468, growth rate inhibition concentration at GR(c) = 0.5, 24 h, read-out: GR50 (the source's name)
[6] = MCF7, MCF-7, growth rate inhibition concentration at GR(c) = 0.5, 24 h, read-out: GR50 (the source's name)
[7] = MDA-MB-453, growth rate inhibition concentration at GR(c) = 0.5, 24 h, read-out: GR50 (the source's name)
[8] = HCC38, 24 h drug treatment, read-out: IC50
[9] = HCC38, growth rate inhibition concentration at GR(c) = 0.5, 24 h, read-out: GR50 (the source's name)
[10] = HCC1806, 24 h drug treatment, read-out: IC50
[11] = HCC1806, growth rate inhibition concentration at GR(c) = 0.5, 24 h, read-out: GR50 (the source's name)
[12] = MDA-MB-436, growth rate inhibition concentration at GR(c) = 0.5, 24 h, read-out: GR50 (the source's name)
[13] = BT-549, growth rate inhibition concentration at GR(c) = 0.5, 24 h, read-out: GR50 (the source's name)
[14] = 24 h drug treatment, read-out: IC50
[15] = growth rate inhibition concentration at GR(c) = 0.5, 24 h, read-out: GR50 (the source's name)

SMILES	AUC (HCC70 cells; HCC70)	GRmax (HCC70 cells; HCC70)	IC50 (HCC70 cells; [3]) [µM]	IC50 (MDA-MB-468 cells; [5]) [µM]	AUC (MDA-MB-468 cells; MDA-MB-468)	IC50 (MCF-7 cells; [6]) [µM]	AUC (MCF-7 cells; MCF-7)	GRmax (MCF-7 cells; MCF-7)	AUC (MDA-MB-453 cells; MDA-MB-453)	AUC (HCC38 cells; HCC38)	GRmax (HCC38 cells; HCC38)	IC50 (HCC38 cells; [8]) [µM]	IC50 (HCC38 cells; [9]) [µM]	AUC (HCC1806 cells; HCC1806)	GRmax (HCC1806 cells; HCC1806)	AUC (MDA-MB-436 cells; MDA-MB-436)	GRmax (MDA-MB-436 cells; MDA-MB-436)	AUC (BT-549 cells; BT-549)	GRmax (BT-549 cells; BT-549)	AUC (MCF-10A cells; 24 h)	other results
CC(C)C[C@H](NC(=O)[C@H](Cc1ccccc1)NC(=O)c1cnccn1)B(O)O [Bortezomib]	0.68	−0.55	0.1	0.017	0.57	0.031	0.78	−0.43	0.75	0.40	−0.99	0.024	0.01	0.70	0.33	0.75	−0.76	0.66	0.39	0.59	IC50 ([1]; Homo sapiens, read-out: GR50 (mean ± SD)): 100 ± 110 nM; area under the dose response curve (AUC), mean ± SD ([1]; TNBC cell lines): 0.66 ± 0.10; IC50 (HCC70 cells; [2]): 0.81 µM; IC50 (MDA-MB-468 cells; [4]): 0.054 µM; IC50 (MDA-MB-453 cells; [7]): 0.063 µM; IC50 (HCC1806 cells; [10]): 0.79 µM; IC50 (HCC1806 cells; [11]): 0.38 µM; IC50 (MDA-MB-436 cells; [12]): 0.021 µM; IC50 (BT-549 cells; [13]): 0.1 µM; IC50 (MCF-10A cells; [14]): 0.046 µM; IC50 (MCF-10A cells; [15]): 0.012 µM
CC(C)C[C@@H](C=O)NC(=O)[C@H](CC(C)C)NC(=O)[C@H](CC(C)C)NC(=O)OCc1ccccc1 [MG 132, MG-132] (Cbz-Leu-Leu-Leu-aldehyde)	0.87	−0.40			0.81		0.87	−0.32	0.87	0.71	−0.98			0.82	0.31	0.86	−0.88	0.83	0.26	0.78	IC50 (HCC70 cells; HCC70, 24 h): 3.7 µM; IC50 (HCC70 cells; HCC70, 24 h, read-out: GR50 (µM)): 2.1 µM; IC50 (MDA-MB-468 cells; MDA-MB-468, 24 h): 1.4 µM; IC50 (MDA-MB-468 cells; MDA-MB-468, 24 h, read-out: GR50 (µM)): 0.61 µM; IC50 (MCF-7 cells; MCF7, 24 h, read-out: GR50 (µM)): 0.57 µM; IC50 (MDA-MB-453 cells; MDA-MB-453, 24 h, read-out: GR50 (µM)): 1.7 µM; IC50 (HCC38 cells; HCC38, 24 h): 0.57 µM; IC50 (HCC38 cells; HCC38, 24 h, read-out: GR50 (µM)): 0.37 µM; IC50 (HCC1806 cells; HCC1806, 24 h): 3.1 µM; IC50 (HCC1806 cells; HCC1806, 24 h, read-out: GR50 (µM)): 2.5 µM; IC50 (MDA-MB-436 cells; MDA-MB-436, 24 h, read-out: GR50 (µM)): 0.29 µM; IC50 (BT-549 cells; BT-549, 24 h): 4.3 µM; IC50 (BT-549 cells; BT-549, 24 h, read-out: GR50 (µM)): 1.4 µM; IC50 (MCF-10A cells; 24 h): 0.94 µM; IC50 (MCF-10A cells; 24 h, read-out: GR50 (µM)): 0.4 µM
COC[C@H](NC(=O)c1cnc(C)s1)C(=O)N[C@@H](COC)C(=O)N[C@@H](Cc1ccccc1)C(=O)[C@@]1(C)CO1 [Oprozomib]	0.89	−0.10	3.7	0.39	0.76	0.27	0.88	−0.45	0.84	0.73	−0.98	0.68	0.33	0.85	0.42	0.84	−0.93	0.81	0.38	0.79	IC50 (HCC70 cells; [2]): 7.6 µM; IC50 (MDA-MB-468 cells; [4]): 3.2 µM; IC50 (MDA-MB-453 cells; [7]): 3.5 µM; IC50 (HCC1806 cells; [10]): 6 µM; IC50 (HCC1806 cells; [11]): 6 µM; IC50 (MDA-MB-436 cells; [12]): 0.075 µM; IC50 (BT-549 cells; [13]): 0.94 µM; IC50 (MCF-10A cells; [14]): 2 µM; IC50 (MCF-10A cells; [15]): 0.36 µM
CC(=O)O[C@H]1C(=O)[C@@]2(C)[C@H]([C@H](OC(=O)c3ccccc3)[C@]3(O)C[C@H](OC(=O)[C@H](O)[C@@H](NC(=O)c4ccccc4)c4ccccc4)C(C)=C1C3(C)C)[C@]1(OC(C)=O)CO[C@@H]1C[C@@H]2O [Paclitaxel]	0.86	0.46	0.38	1.4	0.81	0.041	0.79	−0.56	0.93	0.81	−0.50	7.1	0.11	0.72	0.51	0.78	−0.97	0.87	0.58	0.73	IC50 (HCC1806 cells; [11]): 0.84 µM; IC50 (MDA-MB-436 cells; [12]): 0.055 µM; IC50 (MCF-10A cells; [14]): 0.86 µM; IC50 (MCF-10A cells; [15]): 0.098 µM

Source: article PMC10825133, “Repurposing proteasome inhibitors for improved treatment of triple-negative breast cancer” (Cell Death Discovery, 2024)
